Results reported in patent US20250114374A1, “BCL-2 INHIBITORS” (Newave Pharmaceutical Inc., priority 2021, published 2025).
Where two headings read alike, the source gives them in different places.

Tested on: RS4; 11 with G101V mutation
Test: In vitro anti-proliferation assay (ATPlite luminescence) in BCL-2-dependent ALL cell line RS4;11 with G101V mutation
Assay type: cell-based
Details: read-out: RS411-G101V IC50
Summary of the method: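 IC50 came from luminescent ATP quantification (ATPlite) following cell lysis. Compound dose ranges were applied for roughly 72 h to about 1×10^4 G101V-mutant RS4;11 cells per well, in 10% FBS medium.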

[1] = cellular anti-proliferative IC50, about 72 hours, medium with 10% FBS, ATPlite

| Structure (SMILES) | IC50 [1] | IC50 (Homo sapiens, RS4-11, 72 h) |
| --- | --- | --- |
| Cc1ccccc1[C@@H]1CN([C@H]2CCOc3c2ccc(F)c3F)CCN1C1CC2(CCN(c3ccc(C(=O)NS(=O)(=O)c4cc5c(c([N+](=O)[O-])c4)N[C@H](C4CCOCC4)CO5)c(N4c5cc6cc[nH]c6nc5O[C@H]5COCC[C@@H]54)c3)CC2)C1 [Example 196, 4-{2-[(2R)-4-[(4S)-7,8-difluoro-3,4-dihydro-2H-1-benzopyran-4-yl]-2-(2-methylphenyl)piperazin-1-yl]-7-azaspiro[3.5]nonan-7-yl}-2-[(3R,8S)-2,5-dioxa-9,15,17-triazatetracyclo[8.7.0.0^{3,8}.0^{12,16}]heptadeca-1(10),11,13,16-tetraen-9-yl]-N-[(3R)-5-nitro-3-(oxan-4-yl)-3,4-dihydro-2H-1,4-benzoxazin-7-ylsulfonyl]benzamide] | 92.3 nM | – |
| CC(C)Oc1ccccc1[C@@H]1CN(Cc2ccc(F)c(F)c2)CCN1C1CC2(CCN(c3ccc(C(=O)NS(=O)(=O)c4cc5c(c([N+](=O)[O-])c4)N[C@H](C4CCOCC4)CO5)c(N4c5cc6cc[nH]c6nc5O[C@H]5COCC[C@@H]54)c3)CC2)C1 [Example 181, 4-(2-((R)-4-(3,4-difluorobenzyl)-2-(2-isopropoxyphenyl)piperazin-1-yl)-7-azaspiro[3.5]nonan-7-yl)-N-(((R)-5-nitro-3-(tetrahydro-2H-pyran-4-yl)-3,4-dihydro-2H-benzo[b][1,4]oxazin-7-yl)sulfonyl)-2-((5aS,9aR)-6,7,9,9a-tetrahydro-1H-pyrano[3,4-b]pyrrolo[3′,2′:5,6]pyrido[3,2-e][1,4]oxazin-5(5aH)-yl)benzamide] | – | 9.6 nM |
| Cc1ccccc1[C@@H]1CN([C@H]2CCOc3c(F)cc(F)cc32)CCN1C1CC2(CCN(c3ccc(C(=O)NS(=O)(=O)c4cc5c(c([N+](=O)[O-])c4)N[C@H](C4CCOCC4)CO5)c(N4c5cc6cc[nH]c6nc5O[C@H]5COCC[C@@H]54)c3)CC2)C1 [Example 197, 4-(2-((R)-4-((S)-6,8-difluorochroman-4-yl)-2-(o-tolyl)piperazin-1-yl)-7-azaspiro[3.5]nonan-7-yl)-N-(((R)-5-nitro-3-(tetrahydro-2H-pyran-4-yl)-3,4-dihydro-2H-benzo[b][1,4]oxazin-7-yl)sulfonyl)-2-((5aS,9aR)-6,7,9,9a-tetrahydro-1H-pyrano[3,4-b]pyrrolo[3′,2′:5,6]pyrido[3,2-e][1,4]oxazin-5(5aH)-yl)benzamide] | – | 328 nM |
| COc1cc(CN2CCN(C3CC4(CCN(c5ccc(C(=O)NS(=O)(=O)c6ccc(NCC7CCC(C)(O)CC7)c([N+](=O)[O-])c6)c(N6c7cc8cc[nH]c8nc7O[C@H]7COCC[C@@H]76)c5)CC4)C3)[C@@H](c3ccccc3OC(C)C)C2)cc2cc(C)oc12 (stereo partly drawn) [Example 129, N-((4-((((1r,4r)-4-hydroxy-4-methylcyclohexyl)methyl)amino)-3-nitrophenyl)sulfonyl)-4-(2-((S)-2-(2-isopropoxyphenyl)-4-((7-methoxy-2-methylbenzofuran-5-yl)methyl)piperazin-1-yl)-7-azaspiro[3.5]nonan-7-yl)-2-((5aS,9aR)-6,7,9,9a-tetrahydro-1H-pyrano[3,4-b]pyrrolo[3′,2′:5,6]pyrido[3,2-e][1,4]oxazin-5(5aH)-yl)benzamide] | 33.9 nM | – |
| COc1cc([C@H](C)N2CCN(C3CC4(CCN(c5ccc(C(=O)NS(=O)(=O)c6cc7c(c([N+](=O)[O-])c6)N[C@H](C6CCOCC6)CO7)c(N6c7cc8cc[nH]c8nc7O[C@H]7COCC[C@@H]76)c5)CC4)C3)[C@H](c3ccccc3C)C2)cnc1N1CCOC[C@@H]1C [Example 193, 4-(2-((R)-4-((S)-1-(5-methoxy-6-((S)-3-methylmorpholino)pyridin-3-yl)ethyl)-2-(o-tolyl)piperazin-1-yl)-7-azaspiro[3.5]nonan-7-yl)-N-(((R)-5-nitro-3-(tetrahydro-2H-pyran-4-yl)-3,4-dihydro-2H-benzo[b][1,4]oxazin-7-yl)sulfonyl)-2-((5aS,9aR)-6,7,9,9a-tetrahydro-1H-pyrano[3,4-b]pyrrolo[3′,2′:5,6]pyrido[3,2-e][1,4]oxazin-5(5aH)-yl)benzamide] | – | 73.3 nM |
| Cc1ccccc1[C@@H]1CN(Cc2cnc(N3CCOC[C@@H]3C)c3c2C(C)(C)CCO3)CCN1C1CC2(CCN(c3ccc(C(=O)NS(=O)(=O)c4cc5c(c([N+](=O)[O-])c4)N[C@H](C4CCOCC4)CO5)c(N4c5cc6cc[nH]c6nc5O[C@H]5COCC[C@@H]54)c3)CC2)C1 [Example 252, 4-(2-((R)-4-((4,4-dimethyl-8-((S)-3-methylmorpholino)-3,4-dihydro-2H-pyrano[2,3-c]pyridin-5-yl)methyl)-2-(o-tolyl)piperazin-1-yl)-7-azaspiro[3.5]nonan-7-yl)-N-(((R)-5-nitro-3-(tetrahydro-2H-pyran-4-yl)-3,4-dihydro-2H-benzo[b][1,4]oxazin-7-yl)sulfonyl)-2-((5aS,9aR)-6,7,9,9a-tetrahydro-1H-pyrano[3,4-b]pyrrolo[3′,2′:5,6]pyrido[3,2-e][1,4]oxazin-5(5aH)-yl)benzamide] | – | 1.88 nM |
| CC(C)Oc1ccccc1[C@@H]1CN([C@H]2COCc3c(F)cc(F)cc32)CCN1C1CC2(CCN(c3ccc(C(=O)NS(=O)(=O)c4cc5c(c([N+](=O)[O-])c4)N[C@H](C4CCOCC4)CO5)c(N4c5cc6cc[nH]c6nc5O[C@H]5COCC[C@@H]54)c3)CC2)C1 [Example 230, 4-(2-((R)-4-((R)-6,8-difluoroisochroman-4-yl)-2-(2-isopropoxyphenyl)piperazin-1-yl)-7-azaspiro[3.5]nonan-7-yl)-N-(((R)-5-nitro-3-(tetrahydro-2H-pyran-4-yl)-3,4-dihydro-2H-benzo[b][1,4]oxazin-7-yl)sulfonyl)-2-((5aS,9aR)-6,7,9,9a-tetrahydro-1H-pyrano[3,4-b]pyrrolo[3′,2′:5,6]pyrido[3,2-e][1,4]oxazin-5(5aH)-yl)benzamide] | – | 104 nM |
| Cc1ccccc1[C@@H]1CN([C@@H]2CCOc3c(F)cc(F)cc32)CCN1C1CC2(CCN(c3ccc(C(=O)NS(=O)(=O)c4cc5c(c([N+](=O)[O-])c4)N[C@H](C4CCOCC4)CO5)c(N4c5cc6cc[nH]c6nc5O[C@H]5COCC[C@@H]54)c3)CC2)C1 [Example 198, 4-(2-((R)-4-((R)-6,8-difluorochroman-4-yl)-2-(o-tolyl)piperazin-1-yl)-7-azaspiro[3.5]nonan-7-yl)-N-(((R)-5-nitro-3-(tetrahydro-2H-pyran-4-yl)-3,4-dihydro-2H-benzo[b][1,4]oxazin-7-yl)sulfonyl)-2-((5aS,9aR)-6,7,9,9a-tetrahydro-1H-pyrano[3,4-b]pyrrolo[3′,2′:5,6]pyrido[3,2-e][1,4]oxazin-5(5aH)-yl)benzamide] | – | 145 nM |
| Cc1ccccc1[C@@H]1CN(Cc2ccnc3c2OCC(C)(C)O3)CCN1C1CC2(CCN(c3ccc(C(=O)NS(=O)(=O)c4ccc(NCC5CCC(C)(O)CC5)c([N+](=O)[O-])c4)c(N4c5cc6cc[nH]c6nc5O[C@H]5COCC[C@@H]54)c3)CC2)C1 (stereo partly drawn) [Example 148, 4-(2-((R)-4-((3,3-dimethyl-2,3-dihydro-[1,4]dioxino[2,3-b]pyridin-8-yl)methyl)-2-(o-tolyl)piperazin-1-yl)-7-azaspiro[3.5]nonan-7-yl)-N-((4-((((1r,4r)-4-hydroxy-4-methylcyclohexyl)methyl)amino)-3-nitrophenyl)sulfonyl)-2-((5aS,9aR)-6,7,9,9a-tetrahydro-1H-pyrano[3,4-b]pyrrolo[3′,2′:5,6]pyrido[3,2-e][1,4]oxazin-5(5aH)-yl)benzamide] | 6.3 nM | – |
| Cc1ccccc1[C@@H]1CN(Cc2cnc(N3CCOCC3)c3c2C(C)(C)CCO3)CCN1C1CC2(CCN(c3ccc(C(=O)NS(=O)(=O)c4cc5c(c([N+](=O)[O-])c4)N[C@H](C4CCOCC4)CO5)c(N4c5cc6cc[nH]c6nc5O[C@H]5COCC[C@@H]54)c3)CC2)C1 [Example 192, 4-{2-[(2R)-4-{[4,4-dimethyl-8-(morpholin-4-yl)-2H,3H-pyrano[2,3-c]pyridin-5-yl]methyl}-2-(2-methylphenyl)piperazin-1-yl]-7-azaspiro[3.5]nonan-7-yl}-2-[(3R,8S)-2,5-dioxa-9,15,17-triazatetracyclo[8.7.0.0^{3,8}.0^{12,16}]heptadeca-1(10),11,13,16-tetraen-9-yl]-N-[(3R)-5-nitro-3-(oxan-4-yl)-3,4-dihydro-2H-1,4-benzoxazin-7-ylsulfonyl]benzamide] | 2.41 nM | – |
| CC(C)Oc1ccccc1[C@@H]1CN(Cc2ccc(C#N)nc2)CCN1C1CC2(CCN(c3ccc(C(=O)NS(=O)(=O)c4cc5c(c([N+](=O)[O-])c4)N[C@H](C4CCOCC4)CO5)c(N4c5cc6cc[nH]c6nc5O[C@H]5COCC[C@@H]54)c3)CC2)C1 [Example 262, 4-{2-[(2R)-4-[(6-cyanopyridin-3-yl)methyl]-2-(2-isopropoxyphenyl)piperazin-1-yl]-7-azaspiro[3.5]nonan-7-yl}-2-[(3R,8S)-2,5-dioxa-9,15,17-triazatetracyclo[8.7.0.0^{3,8}.0^{12,16}]heptadeca-1(10),11,13,16-tetraen-9-yl]-N-[(3R)-5-nitro-3-(oxan-4-yl)-3,4-dihydro-2H-1,4-benzoxazin-7-ylsulfonyl]benzamide] | 6.43 nM | – |
| CC(C)Oc1ccccc1[C@@H]1CN(Cc2ccc(F)c(F)c2)CCN1C1CC2(CCN(c3ccc(C(=O)NS(=O)(=O)c4cc5c(c([N+](=O)[O-])c4)N[C@H](C4CCOCC4)CO5)c(N4c5cc6cc[nH]c6nc5O[C@H]5CCOC[C@@H]54)c3)CC2)C1 [Example 240, 4-{2-[(2R)-4-[(3,4-difluorophenyl)methyl]-2-(2-isopropoxyphenyl)piperazin-1-yl]-7-azaspiro[3.5]nonan-7-yl}-2-[(3S,8S)-5,9-dioxa-2,11,13-triazatetracyclo[8.7.0.0^{3,8}.0^{12,16}]heptadeca-1(10),11,14,16-tetraen-2-yl]-N-[(3R)-5-nitro-3-(oxan-4-yl)-3,4-dihydro-2H-1,4-benzoxazin-7-ylsulfonyl]benzamide] | 6.94 nM | – |
